The results in this text go back to patent US8629164B2, “Inhibitors of NF-κB” (Profectus Biosciences, Inc., priority 2009, dated 2014).

Each structure is given as a SMILES string.

One assay relates to NF-κB. Description: 293-cell pNF-κB-luc reporter assay, TNF-α induced. The assay is classed as cell-based. The settings on record: for EC50: HEK293 cells, NF-κB driven luciferase expression, read-out: 293/NFkB-luc EC50. A digest of the protocol:
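HEK293 cells with stably integrated NF-κB reporters, pNF-κB-luc (3 elements) or pTRH1-NF-κB-dscGFP (4 elements). Cells pretreated 2 h with 0–40 μM compound, then stimulated with 20 ng/ml TNF-α for 18 h; luminescence or fluorescence read. Activity referenced to 0.5% DMSO control; median of three independent experiments.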
Background: Reporter assays use an easily measured gene product as a stand-in for the process of interest.

The subject of assay [1] is IL-6 release from RAW264.7 cells. Description: IL-6 release from LPS stimulated RAW264.7 cells. The assay is classed as cell-based, mouse. As to conditions: for EC50: Mus musculus, RAW264.7, RAW 264.7 cells. How it is done: Specifically, A and B show the effects of the compound of Example 1 on soluble PGE2 and Il-6 secretion from RAW264.7 cells stimulated by 1 μg/mL of LPS. The cells were treated with the indicated concentrations of the compound of Example 1 for 2 hours, and then LPS was added and incubation continued for 4 hours. […]

Assay [2] has as its system PGE2 release from RAW264.7 cells. Description: PGE2 release from LPS stimulated RAW264.7 cells. In kind it is cell-based, mouse. As to conditions: for EC50: Mus musculus, RAW264.7, RAW 264.7 cells. How it is done:
Specifically, A and B show the effects of the compound of Example 1 on soluble PGE2 and Il-6 secretion from RAW264.7 cells stimulated by 1 μg/mL of LPS. The cells were treated with the indicated concentrations of the compound of Example 1 for 2 hours, and then LPS was added and incubation continued for 4 hours.
LPS stimulation induces the expression of COX-2 the enzyme responsible for prostaglandin E2.

A further assay deals with p65 (RelA) (Homo sapiens, UniProt Q04206). Description: TransAM NF-κB Family DNA Binding ELISA, p65. The settings on record: for IC50: p65 binding IC50 (uM), binding to NF-κB sites. In general terms: In an ELISA, binding on a coated surface is turned into a signal by an enzyme label.
Sequence of p65 (RelA) (Q04206 whole entry): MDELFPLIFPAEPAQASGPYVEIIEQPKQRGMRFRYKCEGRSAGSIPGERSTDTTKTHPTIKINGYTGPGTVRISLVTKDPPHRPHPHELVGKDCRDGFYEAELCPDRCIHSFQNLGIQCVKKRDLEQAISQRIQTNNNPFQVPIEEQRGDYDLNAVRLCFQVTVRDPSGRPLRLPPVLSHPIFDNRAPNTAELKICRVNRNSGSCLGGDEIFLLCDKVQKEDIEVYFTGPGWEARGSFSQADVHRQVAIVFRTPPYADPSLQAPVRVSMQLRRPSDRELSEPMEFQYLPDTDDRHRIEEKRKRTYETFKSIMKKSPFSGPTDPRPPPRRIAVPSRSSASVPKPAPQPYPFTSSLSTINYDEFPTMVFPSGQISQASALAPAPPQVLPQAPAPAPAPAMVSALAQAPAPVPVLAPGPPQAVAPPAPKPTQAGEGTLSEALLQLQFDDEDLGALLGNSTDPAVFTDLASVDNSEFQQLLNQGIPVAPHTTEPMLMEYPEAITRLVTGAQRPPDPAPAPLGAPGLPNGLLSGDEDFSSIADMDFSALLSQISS
For the next assay, the target named is T1, p52 (Homo sapiens, UniProt Q00653).
T1 sequence (Q00653 1-454 limits assumed): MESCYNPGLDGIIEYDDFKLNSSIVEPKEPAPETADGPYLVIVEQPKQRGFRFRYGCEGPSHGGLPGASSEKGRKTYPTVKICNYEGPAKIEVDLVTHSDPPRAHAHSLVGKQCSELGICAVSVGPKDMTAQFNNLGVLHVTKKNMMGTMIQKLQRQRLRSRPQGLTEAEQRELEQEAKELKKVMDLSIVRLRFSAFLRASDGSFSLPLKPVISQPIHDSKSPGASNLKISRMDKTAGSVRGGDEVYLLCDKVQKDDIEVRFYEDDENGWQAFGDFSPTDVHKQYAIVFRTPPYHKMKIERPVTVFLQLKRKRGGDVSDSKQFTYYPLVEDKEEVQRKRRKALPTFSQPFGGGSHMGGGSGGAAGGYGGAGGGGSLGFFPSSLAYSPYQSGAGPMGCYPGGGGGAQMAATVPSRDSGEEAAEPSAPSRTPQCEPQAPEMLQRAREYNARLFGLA
Description: TransAM NF-κB Family DNA Binding ELISA, p52. The settings on record: p52 binding IC50 (uM), cells without % sign.

Another assay has as its target T2, RelB (Homo sapiens, UniProt Q01201).
T2 sequence (Q01201 1-579): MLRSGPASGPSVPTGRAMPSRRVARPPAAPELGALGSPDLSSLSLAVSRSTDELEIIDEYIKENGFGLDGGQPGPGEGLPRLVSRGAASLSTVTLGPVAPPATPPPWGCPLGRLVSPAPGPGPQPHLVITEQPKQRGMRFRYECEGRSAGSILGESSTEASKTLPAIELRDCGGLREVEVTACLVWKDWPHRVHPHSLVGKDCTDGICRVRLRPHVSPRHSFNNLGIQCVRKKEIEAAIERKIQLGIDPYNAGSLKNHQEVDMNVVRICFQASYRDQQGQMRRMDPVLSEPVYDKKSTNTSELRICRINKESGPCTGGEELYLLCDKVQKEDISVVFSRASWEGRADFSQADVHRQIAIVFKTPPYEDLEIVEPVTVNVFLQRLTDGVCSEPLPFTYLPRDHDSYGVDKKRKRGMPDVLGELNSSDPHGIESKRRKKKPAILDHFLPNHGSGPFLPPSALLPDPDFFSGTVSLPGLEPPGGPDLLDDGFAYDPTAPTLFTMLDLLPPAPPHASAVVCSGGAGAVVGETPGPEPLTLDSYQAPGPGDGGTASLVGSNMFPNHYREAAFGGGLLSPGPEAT
T2 sequence (Q00653 1-454 partner limits assumed): T1 sequence (Q00653 1-454 limits assumed)
Description: TransAM NF-κB Family DNA Binding ELISA, RelB.

For a further assay, the target named is T3, c-Rel (Homo sapiens, UniProt Q04864).
T3 sequence (Q04864 2-619 limits assumed): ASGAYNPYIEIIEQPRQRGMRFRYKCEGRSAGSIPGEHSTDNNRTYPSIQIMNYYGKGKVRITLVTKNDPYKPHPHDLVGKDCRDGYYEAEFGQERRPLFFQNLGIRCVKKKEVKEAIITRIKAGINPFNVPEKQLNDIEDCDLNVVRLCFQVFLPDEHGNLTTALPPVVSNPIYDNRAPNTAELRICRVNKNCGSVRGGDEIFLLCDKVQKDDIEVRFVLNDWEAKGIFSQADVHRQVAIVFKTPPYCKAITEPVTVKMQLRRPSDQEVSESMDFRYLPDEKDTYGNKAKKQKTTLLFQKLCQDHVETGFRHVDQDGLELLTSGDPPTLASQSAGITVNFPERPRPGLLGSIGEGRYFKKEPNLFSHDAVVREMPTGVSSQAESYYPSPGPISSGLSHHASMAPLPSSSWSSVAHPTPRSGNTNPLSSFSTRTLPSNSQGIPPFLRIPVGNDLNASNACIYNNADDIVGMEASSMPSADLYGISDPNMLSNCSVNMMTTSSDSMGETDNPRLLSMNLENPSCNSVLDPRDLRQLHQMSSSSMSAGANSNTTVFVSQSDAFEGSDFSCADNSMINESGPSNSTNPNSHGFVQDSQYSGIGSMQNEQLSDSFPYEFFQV
Description: TransAM NF-κB Family DNA Binding ELISA, c-Rel. The settings on record: c-Rel binding IC50 (uM), cells without % sign.

Setting [3] is: RelB binding IC50 (uM), cells without % sign.

Description for RelB: (§1) Treated samples were then transferred to 30 μL Complete Binding Buffer (with DTT) in microplate wells pre-coated with the NF-κB consensus oligonucleotide. […] The plate was incubated for 1 hour at room temperature with gentle shaking and then washed 3 times with 200 μL 1× Wash Buffer. NF-κB p65, p50, p52, RelB, or c-Rel subunits bound to the plate were detected with 100 μL of the primary antibody (diluted 1:1000 in 1× Antibody Buffer) specific for that subunit. The plate was incubated for 1 hour at room temperature and then washed 3 times with 200 μL 1× Wash Buffer. Next, 100 μL of a HRP conjugated goat anti-rabbit antibody (diluted 1:1,000 in 1× Antibody Buffer) was added to each well. The plate was incubated for 1 hour at room temperature and then washed 4 times with 200 μL 1× Wash Buffer. 100 μL of room temperature Developing Solution was added to each well. The reaction was allowed to develop for 2-10 minutes until a medium dark blue color developed (depending on the subunit activity in the lot of extract or lot of recombinant protein used) and then the reaction was stopped with 100 μL Stop Solution yielding a yellow color. Absorbance was recorded using a Becton-Dickinson DTX 880 Multimode Detector at 450 nm with a reference wavelength subtracted at 620 nm.
Description for c-Rel: as §1
Description for p52: as §1

Broadly, the IC50 is the concentration that inhibits the measured activity by half. With `O=C(NC1=CC(=O)C2OC2C1O)c1cccnc1O` (racemic) [Example 1, (±)-2-hydroxy-N-(2-hydroxy-5-oxo-7-oxabicyclo[4.1.0]hept-3-en-3-yl)nicotinamide], the IC50 with NF-κB (2 hours pre-treatment, 20 ng/ml TNF-α 18 hours, median of three experiments ± standard error, read-out: median IC50, expression of the luciferase gene) is 16.2 ± 1.1 µM; at p65 (RelA) it was 2.2 µM; on p52, 13 µM; on RelB (setting [3]), 7.4 µM; at c-Rel, 4.6 µM. Besides, the EC50 came to 6.2 µM with NF-κB, 6.5 µM in assay [1] and 6.9 µM in assay [2]. Moreover, the “inhibition of IL-6” value in assay [1] (LPS stimulated RAW264.7, FIG. 5B) was “inhibited in a dose dependent manor”. Also, the “decrease in downstream PGE2 synthesis” value in assay [2] (LPS stimulated, FIG. 5A) is “dose dependent”.

With `O=C(NC1=CC(=O)C2OC2C1O)c1cc2ccccc2nc1O` (racemic) [Example 2, (±)-2-hydroxy-N-(2-hydroxy-5-oxo-7-oxabicyclo[4.1.0]hept-3-en-3-yl)quinoline-3-carboxamide], the EC50 with NF-κB was determined as 4.1 µM; in assay [1], 0.24 µM; in assay [2], 1.8 µM. In addition, the “inhibition of p65 (RelA) binding to DNA, comparison” value on p65 (RelA) (FIG. 7, canonical pathway) was “more potently than DHMEQ and parthenolide”. Also, the IC50 at p65 (RelA) was 1.4 µM; on p52, 6 µM; at RelB (setting [3]), 2 µM; on RelB (RelB binding to DNA IC50, FIG. 8, non-canonical pathway) it was ~2 µM; at c-Rel, 2.1 µM.
